The target in one assay is T1, OR35a (Drosophila melanogaster, UniProt Q9V3Q2).
T1 sequence (Q9V3Q2 1-409): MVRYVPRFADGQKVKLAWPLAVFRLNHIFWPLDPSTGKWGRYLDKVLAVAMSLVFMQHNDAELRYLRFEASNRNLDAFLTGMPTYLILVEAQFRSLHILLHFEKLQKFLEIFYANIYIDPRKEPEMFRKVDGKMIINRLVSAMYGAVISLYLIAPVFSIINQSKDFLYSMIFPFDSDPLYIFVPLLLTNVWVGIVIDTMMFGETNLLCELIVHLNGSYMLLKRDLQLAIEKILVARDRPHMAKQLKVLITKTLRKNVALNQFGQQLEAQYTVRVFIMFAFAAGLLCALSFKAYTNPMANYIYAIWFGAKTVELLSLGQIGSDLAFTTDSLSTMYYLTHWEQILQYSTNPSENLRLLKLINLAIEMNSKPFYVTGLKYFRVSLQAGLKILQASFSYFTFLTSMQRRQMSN
Kind of assay: EIS sensor, Or35a liposomes on gold electrode (Example 1). The format is binding. The conditions noted are these: Or35a liposomes, EIS. As to the method: Liposomes were prepared using a phospholipid solution produced by evaporating solutions containing: phosphatidylethanolamine (PE), phosphatidylserine (PS), phosphatidylcholine (PC), and cholesterol (CH) at a molar ratio of 5:3:3:1 in a small glass tube under a stream of N2 gas, then desiccating under vacuum for 1 h. […] To promote the formation of liposomes, 10 freeze/thaw steps were performed by transferring the tube from liquid nitrogen to a 40° C. water bath. Liposomes were then sized by passing the lipid solution 11 times through a 100-nm polycarbonate membrane using an Avestin LiposoFAST extruder unit (Avestin, Germany). Glycerol was added at 10% of the final volume and aliquots at 10 mg/mL were snap frozen in liquid nitrogen and stored at -80° C. Prior to their use, liposomes were defrosted on ice and then destabilized by incubating with 0.2% CHAPS for 15 min at room temperature. Then 200 μg of purified odorant receptor^14 was added to 1 mg of liposomes and rotated at 10 rpm for 1 h at room temperature. […] The Bio-Beads were removed after each incubation period. The OR integrated liposomes were pelleted by centrifugation at 100,000 g for 1 h, and were resuspended in 500 μL of rehydration buffer. Integration of OrXs into liposomes was assessed by density gradient ultracentrifugation (DGU) using Accudenz (Accurate Chemical & Scientific Corporation, USA). […] The sample was then centrifuged at 100,000 g for 4 h at 4° C. Liposomes will float to the top of the gradient after Accudenz DGU due to their low density. 1.3 Electrode Cleaning Gold disk (2 mm) electrodes were cleaned with polishing with Alumina paste for 2 minutes, ultra-sonicated in pure ethanol and then Milli-Q water for 5 minutes each. […] Charge transfer resistance (Rct) of electrodes were calculated by fitting obtained data to a Randles' equivalent circuit [Rs+CPE/(Rct+W)] comprising of a solution resistance (Rs) in series with a constant phase element (CPE) and in parallel with charge transfer resistance (Rct) and Warburg diffusion element. […]

Another assay deals with T2, OR71a (Drosophila melanogaster, UniProt Q9VUK5).
T2 sequence (Q9VUK5 1-378): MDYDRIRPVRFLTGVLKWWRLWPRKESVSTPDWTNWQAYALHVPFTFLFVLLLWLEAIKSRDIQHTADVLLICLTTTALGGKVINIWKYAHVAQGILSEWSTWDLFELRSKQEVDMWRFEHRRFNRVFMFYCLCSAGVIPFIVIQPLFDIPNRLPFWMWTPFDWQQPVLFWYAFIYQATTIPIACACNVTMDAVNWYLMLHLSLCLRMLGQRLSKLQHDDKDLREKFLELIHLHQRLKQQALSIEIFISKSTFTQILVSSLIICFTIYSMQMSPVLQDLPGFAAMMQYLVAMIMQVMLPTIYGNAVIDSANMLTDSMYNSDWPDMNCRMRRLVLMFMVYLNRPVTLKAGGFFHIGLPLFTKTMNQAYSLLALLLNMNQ
The experiment in a line: EIS sensor, Or71a liposomes on gold electrode, optimized conditions (Example 5). The format is binding.

As usually defined, the EC50 is the concentration at which the effect is half-maximal.

Turning to `CCC/C=C/C=O` [E2-hexenal], the EC50 at OR35a was approximately 10 nM. The “Sensitivity limit (lowest detectable concentration)” value on OR35a (signal/noise >3) worked out at 36 pM.
For the compound `COC(=O)c1ccccc1O` [methyl salicylate], the “EIS response to control ligand” value at OR71a is listed as “do not respond”.

The record behind these values is patent publication US12044651B2, “Sensor device and methods” (SCENTIAN BIO LIMITED, priority 2016, dated 2024).
